Experimental data from patent EP4144838A1, “ORGANISMS PRODUCING LESS CROTONIC ACID” (Global Bioenergies, priority 2021, dated 2023).

Columns and labels:
[1] = biological target: E. coli deoxyribose-phosphate aldolase (Escherichia coli, UniProt P0A6L0); settings: Racker et al. 1951; Jennewein et al. 2006; cited from earlier work
[2] = tested on: TaFdcV; assay: Cycloadduct formation with TaFdcV followed by UV-Vis spectroscopy; assay type: binding, Trichoderma atroviride; settings: for adduct formation / binding, reversibility after desalting: UV-Vis spectrum before and after a desalting step
[3] = tested on: TaFdc; assay: Adduct formation with TaFdc wild-type followed by UV-Vis spectroscopy; settings: UV-Vis spectrum before and after a desalting step

Chain of E. coli deoxyribose-phosphate aldolase (P0A6L0 whole entry): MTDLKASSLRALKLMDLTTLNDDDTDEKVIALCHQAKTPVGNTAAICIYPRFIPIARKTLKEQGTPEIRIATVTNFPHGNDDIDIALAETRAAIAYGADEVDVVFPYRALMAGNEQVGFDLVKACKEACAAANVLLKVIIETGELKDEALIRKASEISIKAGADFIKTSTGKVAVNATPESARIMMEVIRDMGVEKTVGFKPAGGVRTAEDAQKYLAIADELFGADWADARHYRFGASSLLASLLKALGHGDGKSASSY

| Compound | inhibition of E. coli deoxyribose-phosphate aldolase [1] | adduct formation / binding, reversibility after desalting [2] | further results |
| --- | --- | --- | --- |
| CCCCCCCCO [octanol] | inhibit |  |  |
| CCC=O [propionaldehyde] | inhibit |  |  |
| NO [hydroxylamine] | inhibit |  |  |
| CCC/C=C/C(=O)O [hexenoic acid, trans-2-hexenoic acid] |  | irreversibly binds | adduct formation / binding, reversibility after desalting [3]: irreversibly binds |
| C/C=C/C(=O)O [crotonic acid] |  | a covalent inhibitory adduct is formed | inhibition of the enzyme ferulic acid decarboxylase (FDC) ([2]; FDC variant evolved to decarboxylate 3-methylcrotonic acid, FIG.2): irreversible inhibitor |
| OC(O)C(Cl)(Cl)Cl [chloral hydrate] | inhibit |  |  |
| pentenoic acid |  | irreversibly binds | adduct formation / binding, reversibility after desalting [3]: irreversibly binds |
| O=CCCl [chloroacetaldehyde] | efficiently inhibit |  |  |
| CC#CC(=O)O [2-butynoic acid] |  | a covalent inhibitory adduct is formed |  |
